From the CheMixHub drug solubility set

Assay: xn = mol fraction of the nth substance listed, in the solute-free solvent

CC(N)C(=O)O (stereo not given) + O + CCO
solubility (g/100 g solution)
Details | x2 = 0.1 | x2 = 0.2 | x2 = 0.3 | x2 = 0.4 | x2 = 0.5 | x2 = 0.6 | x2 = 0.7 | x2 = 0.8 | x2 = 0.9
283.15 K | 0.0667 | 0.0909 | 0.102 | 0.126 | 0.31 | 0.534 | 1.1 | 1.98 | 4.36
293.15 K | 0.0741 | 0.0951 | 0.11 | 0.185 | 0.389 | 0.66 | 1.35 | 2.59 | 5.5
303.15 K | 0.0895 | 0.102 | 0.127 | 0.245 | 0.454 | 0.83 | 1.68 | 3.23 | 6.66
313.15 K | 0.0998 | 0.114 | 0.136 | 0.268 | 0.573 | 1.05 | 2.12 | 3.96 | 7.99
323.15 K | 0.104 | 0.124 | 0.196 | 0.347 | 0.688 | 1.37 | 2.62 | 4.97 | 9.53

CC(N)C(=O)O (stereo not given) + O + CO
solubility (g/100 g solution)
Details | x2 = 0.1 | x2 = 0.2 | x2 = 0.3 | x2 = 0.4 | x2 = 0.5 | x2 = 0.6 | x2 = 0.7 | x2 = 0.8 | x2 = 0.9
283.15 K | 0.123 | 0.167 | 0.315 | 0.44 | 0.705 | 1.21 | 1.99 | 3.46 | 6.52
293.15 K | 0.142 | 0.222 | 0.377 | 0.571 | 0.899 | 1.53 | 2.53 | 4.26 | 7.7
303.15 K | 0.159 | 0.281 | 0.434 | 0.667 | 1.11 | 1.88 | 3.07 | 5.17 | 8.92
313.15 K | 0.178 | 0.331 | 0.492 | 0.816 | 1.39 | 2.35 | 3.85 | 6.26 | 10.4
323.15 K | 0.193 | 0.424 | 0.627 | 1.03 | 1.77 | 2.95 | 4.69 | 7.21 | 11.9
